Measured values: ChEMBL document CHEMBL1201862, “PubChem BioAssay data set” (2004)
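Test compounds were applied to cells in 96-well plates for 48 hours at 5 doses. Here, GI50 denotes the concentration required for 50% inhibition of growth.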 Activity calls are given as the source filed them. Rule as the data show it: active = GI50 up to about 1.1 µM and inactive = higher.

What was measured:
Experiment in all cases: NCI-60 cell line screen, 48 h
PC-3 = tested on: PC-3
UACC-257 = tested on: UACC-257
HCC 2998 = tested on: HCC 2998
HOP-92 = tested on: HOP-92
HCT-15 = tested on: HCT-15
MDA-MB-231 = tested on: MDA-MB-231
OVCAR-8 = tested on: OVCAR-8
M14 = tested on: M14
TK-10 = tested on: TK-10
786-0 = tested on: 786-0
NCI-H23 = tested on: NCI-H23
CAKI-1 = tested on: CAKI-1
Malme-3M = tested on: Malme-3M
SK-MEL-28 = tested on: SK-MEL-28
COLO 205 = tested on: COLO 205
Hs-578T = tested on: Hs-578T
SW-620 = tested on: SW-620
SK-OV-3 = tested on: SK-OV-3
DU-145 = tested on: DU-145
SNB-75 = tested on: SNB-75
MOLT-4 = tested on: MOLT-4
HT-29 = tested on: HT-29
A498 = tested on: A498
SF-268 = tested on: SF-268
OVCAR-5 = tested on: OVCAR-5
NCI-H522 = tested on: NCI-H522
SN12C = tested on: SN12C
RPMI-8226 = tested on: RPMI-8226
BT-549 = tested on: BT-549
SK-MEL-2 = tested on: SK-MEL-2
MDA-MB-435 = tested on: MDA-MB-435
OVCAR-4 = tested on: OVCAR-4
NCI-H460 = tested on: NCI-H460
SK-MEL-5 = tested on: SK-MEL-5
U-251 = tested on: U-251
MCF7 = tested on: MCF7
CCRF-CEM = tested on: CCRF-CEM
KM12 = tested on: KM12
HCT-116 = tested on: HCT-116
T47D = tested on: T47D
UACC-62 = tested on: UACC-62
ACHN = tested on: ACHN
RXF 393 = tested on: RXF 393
UO-31 = tested on: UO-31
SF-295 = tested on: SF-295
LOX IMVI = tested on: LOX IMVI
NCI/ADR-RES = tested on: NCI/ADR-RES
NCI-H226 = tested on: NCI-H226
HOP-62 = tested on: HOP-62
MDA-N = tested on: MDA-N
A549 = tested on: A549
EKVX = tested on: EKVX
SF-539 = tested on: SF-539
OVCAR-3 = tested on: OVCAR-3
IGROV-1 = tested on: IGROV-1
SNB-19 = tested on: SNB-19
SR = tested on: SR
K562 = tested on: K562
HL-60 = tested on: HL-60

## NC1=CC(C(=O)c2ccncc2)c2nc3ccccc3nc21 (centres undefined)
PC-3
  GI50: > 100 µM (inactive)
UACC-257
  GI50: > 100 µM (inactive)
HCC 2998
  GI50: > 100 µM (inactive)
HOP-92
  GI50: > 100 µM (inactive)
HCT-15
  GI50: 92.7 µM
MDA-MB-231
  GI50: > 100 µM (inactive)
OVCAR-8
  GI50: 63.5 µM (inactive)
M14
  GI50: > 100 µM (inactive)
TK-10
  GI50: > 100 µM (inactive)
786-0
  GI50: > 100 µM (inactive)
NCI-H23
  GI50: 63 µM (inactive)
CAKI-1
  GI50: 42.2 µM (inactive)
Malme-3M
  GI50: > 100 µM (inactive)
SK-MEL-28
  GI50: > 100 µM (inactive)
COLO 205
  GI50: > 100 µM (inactive)
Hs-578T
  GI50: 57 µM (inactive)
SW-620
  GI50: > 100 µM (inactive)
SK-OV-3
  GI50: > 100 µM (inactive)
DU-145
  GI50: > 100 µM (inactive)
SNB-75
  GI50: 52 µM (inactive)
MOLT-4
  GI50: > 100 µM (inactive)
HT-29
  GI50: 68.5 µM (inactive)
A498
  GI50: > 100 µM (inactive)
SF-268
  GI50: > 100 µM (inactive)
OVCAR-5
  GI50: > 100 µM (inactive)
NCI-H522
  GI50: > 100 µM (inactive)
SN12C
  GI50: > 100 µM (inactive)
RPMI-8226
  GI50: > 100 µM (inactive)
BT-549
  GI50: > 100 µM (inactive)
SK-MEL-2
  GI50: > 100 µM (inactive)
MDA-MB-435
  GI50: > 100 µM (inactive)
OVCAR-4
  GI50: > 100 µM (inactive)
NCI-H460
  GI50: 75.5 µM (inactive)
SK-MEL-5
  GI50: > 100 µM (inactive)
U-251
  GI50: > 100 µM (inactive)
MCF7
  GI50: > 100 µM (inactive)
CCRF-CEM
  GI50: > 100 µM (inactive)
KM12
  GI50: > 100 µM (inactive)
HCT-116
  GI50: > 100 µM (inactive)
T47D
  GI50: > 100 µM (inactive)
UACC-62
  GI50: > 100 µM (inactive)
ACHN
  GI50: 59.2 µM (inactive)
RXF 393
  GI50: > 100 µM (inactive)
UO-31
  GI50: > 100 µM (inactive)
SF-295
  GI50: 94.4 µM (inactive)
LOX IMVI
  GI50: 22.7 µM (inactive)
NCI/ADR-RES
  GI50: > 100 µM (inactive)
NCI-H226
  GI50: > 100 µM (inactive)
HOP-62
  GI50: 44.2 µM (inactive)
MDA-N
  GI50: > 100 µM (inactive)
A549
  GI50: > 100 µM (inactive)
EKVX
  GI50: > 100 µM (inactive)
SF-539
  GI50: > 100 µM (inactive)
OVCAR-3
  GI50: > 100 µM (inactive)
IGROV-1
  GI50: 46.6 µM (inactive)
SNB-19
  GI50: > 100 µM (inactive)

## COC(OC)[C@@H]1OC[C@H](n2cnc3c(N)ncnc32)[C@H]1O
PC-3
  GI50: > 100 µM (inactive)
UACC-257
  GI50: > 100 µM (inactive)
HCC 2998
  GI50: > 100 µM (inactive)
HOP-92
  GI50: > 100 µM (inactive)
HCT-15
  GI50: > 100 µM
MDA-MB-231
  GI50: > 100 µM (inactive)
M14
  GI50: > 100 µM (inactive)
TK-10
  GI50: > 100 µM (inactive)
786-0
  GI50: > 100 µM (inactive)
NCI-H23
  GI50: > 100 µM (inactive)
CAKI-1
  GI50: > 100 µM (inactive)
SK-MEL-28
  GI50: > 100 µM (inactive)
COLO 205
  GI50: > 100 µM (inactive)
Hs-578T
  GI50: > 100 µM (inactive)
SW-620
  GI50: > 100 µM (inactive)
SK-OV-3
  GI50: > 100 µM (inactive)
DU-145
  GI50: > 100 µM (inactive)
SNB-75
  GI50: > 100 µM (inactive)
MOLT-4
  GI50: > 100 µM (inactive)
HT-29
  GI50: > 100 µM (inactive)
A498
  GI50: > 100 µM (inactive)
SF-268
  GI50: > 100 µM (inactive)
OVCAR-5
  GI50: > 100 µM (inactive)
SR
  GI50: > 100 µM (inactive)
K562
  GI50: > 100 µM (inactive)
SN12C
  GI50: > 100 µM (inactive)
RPMI-8226
  GI50: > 100 µM (inactive)
BT-549
  GI50: > 100 µM (inactive)
SK-MEL-2
  GI50: > 100 µM (inactive)
MDA-MB-435
  GI50: > 100 µM (inactive)
OVCAR-4
  GI50: > 100 µM (inactive)
NCI-H460
  GI50: > 100 µM (inactive)
SK-MEL-5
  GI50: > 100 µM (inactive)
U-251
  GI50: > 100 µM (inactive)
CCRF-CEM
  GI50: > 100 µM (inactive)
KM12
  GI50: > 100 µM (inactive)
HCT-116
  GI50: > 100 µM (inactive)
T47D
  GI50: > 100 µM (inactive)
UACC-62
  GI50: > 100 µM (inactive)
ACHN
  GI50: > 100 µM (inactive)
RXF 393
  GI50: > 100 µM (inactive)
UO-31
  GI50: > 100 µM (inactive)
SF-295
  GI50: > 100 µM (inactive)
LOX IMVI
  GI50: > 100 µM (inactive)
NCI/ADR-RES
  GI50: > 100 µM (inactive)
NCI-H226
  GI50: > 100 µM (inactive)
HOP-62
  GI50: > 100 µM (inactive)
MDA-N
  GI50: > 100 µM (inactive)
A549
  GI50: > 100 µM (inactive)
EKVX
  GI50: > 100 µM (inactive)
SF-539
  GI50: > 100 µM (inactive)
OVCAR-3
  GI50: > 100 µM (inactive)
IGROV-1
  GI50: > 100 µM (inactive)
SNB-19
  GI50: 5.06 µM (inactive)

## COc1ccc(CNC(=O)[C@H](Cc2ccc(O)cn2)NC(C)=O)cc1
PC-3
  GI50: > 100 µM (inactive)
UACC-257
  GI50: > 100 µM (inactive)
HCC 2998
  GI50: > 100 µM (inactive)
HCT-15
  GI50: > 100 µM
M14
  GI50: > 100 µM (inactive)
TK-10
  GI50: > 100 µM (inactive)
786-0
  GI50: > 100 µM (inactive)
NCI-H23
  GI50: > 100 µM (inactive)
CAKI-1
  GI50: > 100 µM (inactive)
SK-MEL-28
  GI50: > 100 µM (inactive)
COLO 205
  GI50: > 100 µM (inactive)
Hs-578T
  GI50: > 100 µM (inactive)
SW-620
  GI50: > 100 µM (inactive)
SK-OV-3
  GI50: > 100 µM (inactive)
DU-145
  GI50: > 100 µM (inactive)
MOLT-4
  GI50: > 100 µM (inactive)
HT-29
  GI50: > 100 µM (inactive)
A498
  GI50: > 100 µM (inactive)
SF-268
  GI50: > 100 µM (inactive)
OVCAR-5
  GI50: > 100 µM (inactive)
SR
  GI50: > 100 µM (inactive)
NCI-H522
  GI50: > 100 µM (inactive)
HL-60
  GI50: > 100 µM (inactive)
K562
  GI50: > 100 µM (inactive)
SN12C
  GI50: > 100 µM (inactive)
RPMI-8226
  GI50: 64.9 µM (inactive)
BT-549
  GI50: > 100 µM (inactive)
SK-MEL-2
  GI50: > 100 µM (inactive)
MDA-MB-435
  GI50: > 100 µM (inactive)
OVCAR-4
  GI50: > 100 µM (inactive)
NCI-H460
  GI50: > 100 µM (inactive)
SK-MEL-5
  GI50: > 100 µM (inactive)
U-251
  GI50: > 100 µM (inactive)
MCF7
  GI50: > 100 µM (inactive)
CCRF-CEM
  GI50: > 100 µM (inactive)
KM12
  GI50: > 100 µM (inactive)
HCT-116
  GI50: 89.3 µM (inactive)
T47D
  GI50: > 100 µM (inactive)
UACC-62
  GI50: > 100 µM (inactive)
ACHN
  GI50: > 100 µM (inactive)
RXF 393
  GI50: > 100 µM (inactive)
UO-31
  GI50: > 100 µM (inactive)
SF-295
  GI50: > 100 µM (inactive)
LOX IMVI
  GI50: > 100 µM (inactive)
NCI/ADR-RES
  GI50: > 100 µM (inactive)
NCI-H226
  GI50: > 100 µM (inactive)
HOP-62
  GI50: > 100 µM (inactive)
MDA-N
  GI50: > 100 µM (inactive)
A549
  GI50: > 100 µM (inactive)
EKVX
  GI50: 87.7 µM (inactive)
SF-539
  GI50: > 100 µM (inactive)
OVCAR-3
  GI50: > 100 µM (inactive)
IGROV-1
  GI50: > 100 µM (inactive)
SNB-19
  GI50: > 100 µM (inactive)
